In patent US9844543B2, “Method of treating or preventing hyperlipidemia with caffeamide derivatives” (priority 2015, dated 2017):

Tests used:
Format in all cases: in vivo, C57BL/6J mice
[1] = system: adipocytes from epididymal white adipose tissue; assay: Histopathology of epididymal white adipose tissue (adipocyte size); settings: high-fat diet mice, 10 mg/kg/day oral; HF 6765.87, CON 3263.78
Description: (§1) All animal procedures were performed as per guidelines provided by the Institutional Animal Care and Use Committee of Central Taiwan University of Science and Technology. Firstly, C57BL/6J mice (4-5 weeks old) were purchased from the National Laboratory Animal Breeding and Research Center, National Science Council, Taiwan, and were maintained on a 12-hour light/dark cycle (light cycle: 7 a.m. to 7 p.m.). Seven days after acclimation, the C57BL/6J mice were divided randomly into two groups: the control group (CON, n=9) was fed with low-fat diet (Diet 12450B, Research Diets, Inc., New Brunswick, N.J. 08901, USA), whereas the experimental group (n=36) was fed with a 45% high-fat diet (Diet 12451, Research Diets, Inc., New Brunswick, N.J. 08901, USA) for 12 weeks. The low-fat diet was composed of protein 20%, carbohydrate 70% and fat 10%, whereas the high-fat diet was composed of protein 20%, carbohydrate 35%, and fat 45% (of total energy, % kcal). […] The body weight was measured weekly throughout the experimentation. […] Livers and white adipose tissue (WATs, including epididymal mesenteric, and retroperitoneal WAT) were excised according to the defined anatomical landmarks, and the weight of the tissues was measured. […]

[2] = Body weight, weight gain and absolute tissue weights in high-fat diet-fed mice
Description: (§2) All animal procedures were performed as per guidelines provided by the Institutional Animal Care and Use Committee of Central Taiwan University of Science and Technology. Firstly, C57BL/6J mice (4-5 weeks old) were purchased from the National Laboratory Animal Breeding and Research Center, National Science Council, Taiwan, and were maintained on a 12-hour light/dark cycle (light cycle: 7 a.m. to 7 p.m.). Seven days after acclimation, the C57BL/6J mice were divided randomly into two groups: the control group (CON, n=9) was fed with low-fat diet (Diet 12450B, Research Diets, Inc., New Brunswick, N.J. 08901, USA), whereas the experimental group (n=36) was fed with a 45% high-fat diet (Diet 12451, Research Diets, Inc., New Brunswick, N.J. 08901, USA) for 12 weeks. The low-fat diet was composed of protein 20%, carbohydrate 70% and fat 10%, whereas the high-fat diet was composed of protein 20%, carbohydrate 35%, and fat 45% (of total energy, % kcal). After 8-week diet-induction period, the high-fat treated mice were randomly subdivided into four groups (n=9 per group), namely, control group (CON), high-fat control group (HF), TS group (including T1 and T2, representing mice treated with the compound of the present invention using a dosage of 10 mg/kg/day and 20 mg/kg/day, respectively), rosiglitazone treated group (Rosi; 1% methylcellulose 10 mg/kg body weight, obtained from GlaxoSmithKline, product number: BRL49653 C). TS and Rosi group were administrated through oral gavage one time per day from the 9th to the 12th week of the experiment while the mice were still on the high-fat diet. On the other hand, CON and HF groups were treated with vehicle only. The body weight was measured weekly throughout the experimentation. By the end of the experimentation, food was deprived from the mice (from 10 p.m. to 10 a.m.) On the next day (the 85th day), all mice were sacrificed for blood and tissue collection and analysis. The mice were untreated with TS or Rosi at the 85th day. Livers and white adipose tissue (WATs, including epididymal mesenteric, and retroperitoneal WAT) were excised according to the defined anatomical landmarks, and the weight of the tissues was measured. Tissues were immediately frozen using liqid nitrogen and then kept at −80° C. for the analysis of target gene expression. Heparin (30 units/mL, Sigma) was added into blood sample. Plasma samples were collected by centrifugation at […] for 15 minutes at 4° C. The separation of the plasma was finished within 30 minutes. Plasma was obtained for leptin assay.
Body weight of mice was monitored and measured daily at the same time throughout the experimentation. The differences between the body weight of the next day and the former day is defined as body weight gain. The pellet food was weighed and followed by being placed in the cage food container. Unconsumed pellet high-fat food was discarded each day and fresh pellet of high-fat diet was provided to ensure consistent food quality throughout the experimentation. The high-fat food was stored at 4° C.

[3] = Blood parameters assay (TG, FFA, TC, adiponectin, leptin) in high-fat diet-fed mice; settings: 0.01 g/kg/day oral
Description: as §2, with “Seven days after acclimation, the C57BL/6J mice were divided randomly into two groups: the control group (CON, n=9) was fed with low-fat diet (Diet 12450B, Research Diets, Inc., New Brunswick, N.J. 08901, USA), whereas the experimental group (n=36) was fed with a 45% high-fat diet (Diet 12451, Research Diets, Inc., New Brunswick, N.J. 08901, USA) for 12 weeks. The low-fat diet was composed of protein 20%, carbohydrate 70% and fat 10%, whereas the high-fat diet was composed of protein 20%, carbohydrate 35%, and fat 45% (of total energy, % kcal).” left out
Blood samples (0.8 mL) were collected from the retro-orbital sinus of fasting mice and the plasma triglycerides (TG), total cholesterol (TC), and free fatty acids (FFA) were analyzed using commercial assay kits according to the manufacture's directions (Triglycerides-E test, Cholesterol-E test, and FFA-C test, Wako Pure Chemical, Osaka, Japan).
The levels of adiponectin and leptin were analyzed by ELISA using commercial assay kits according to manufacture's directions (mouse/rat adiponectin ELISA kit, B-Bridege International, GmbH, Germany, and mouse leptin ELISA kit, Morinaga, Yokohama, Japan).

[4] = Measurement of hepatic lipids in high-fat diet-fed mice; settings: 0.01 g/kg/day oral, week 12
Description: as §1, with “weeks.” for “weeks. The low-fat diet was composed of protein 20%, carbohydrate 70% and fat 10%, whereas the high-fat diet was composed of protein 20%, carbohydrate 35%, and fat 45% (of total energy, % kcal).”
For hepatic lipid extraction, a 0.375 g liver samples were homogenized with 1 mL distill water for 5 minutes. The dried pellet was finally resuspended in 0.5 mL ethanol and analyzed using a triglycerides kit as used for analyzing the serum lipids set forth above.

[5] = 0.01 g/kg/day oral gavage weeks 9-12

With `CN(CCOc1ccc(CC2SC(=O)NC2=O)cc1)c1ccccn1` (centres unmarked) [Rosi, rosiglitazone] as the molecule, how does the average area of the cut of the adipocytes (epididymal white adipose tissue) [1] read?
The average area of the cut of the adipocytes (epididymal white adipose tissue) was 4600 µm².

What about the “Absolute tissue weight BAT” value [2, 5] of the same molecule?
The value was 0.210 ± 0.023 g.

What about the “Absolute tissue weight MWAT” value [2, 5] of the same molecule?
Its value is 0.238 ± 0.033 g.

What about the “Absolute tissue weight RWAT” value [2, 5] of the same molecule?
Its value is 0.334 ± 0.057 g.

And the “Absolute tissue weight Visceral fat” value [2, 5]?
Its value is 1.330 ± 0.138 g.

What about the “Absolute tissue weight EWAT” value ([2]; 0.01 g/kg/day oral gavage weeks 9-12, mean ± S.E. n=9) of the same molecule?
The value was 1.003 ± 0.103 g.

What about the Weight gain ([2]; 0.01 g/kg/day oral gavage weeks 9-12, week 12) of the same molecule?
The Weight gain was 0.91 ± 1.45 g.

And the “Blood Adiponectin” value ([3]; week 12)?
Its value is 7.51 ± 0.53 ng/mL.

And the “Blood FFA” value ([3]; week 12)?
Its value is 1.52 ± 0.16 meq/L.

And the “Blood Leptin” value ([3]; week 12)?
The value was 2.063 ± 0.111 µg/mL.

And the “Blood TC” value ([3]; week 12)?
Its value is 134.9 ± 3.5 mg/dL.

What about the “Blood TG” value ([3]; week 12, fasting) of the same molecule?
The value was 81.8 ± 5.8 mg/dL.

What about the “Liver lipids: Total lipid” value [4] of the same molecule?
The value was 60.2 ± 5.4 mg/g.

And the “Liver lipids: Triacylglycerol” value [4]?
The value was 42.6 ± 5.8 µmol/g.
